Earlier results in patent US20230381158A1, “COMPOSITIONS FOR THE TREATMENT OF NON-ALCOHOLIC FATTY LIVER DISEASE AND NON-ALCOHOLIC STEATOHEPATITIS” (LUMOS PHARMA, INC., priority 2018, published 2023).
Counter-ions that a name gives are not always drawn. Ends that are not written are not given here.

Key:
GH/IGF-1 axis = conditions: in vivo
[1] = FDA warning
subjects = conditions: 12 subjects treated for 24 weeks
Type 2 diabetic patients = Type 2 diabetic patients on metformin and/or a sulphonylurea agent, 12 week treatment
NAFLD patients = conditions: 24 week study, 50 NAFLD patients, versus placebo
[2] = test system: adults NASH without diabetes and cirrhosis; conditions: 800 mg/day, versus placebo
[3] = five studies
NASH patients = conditions: 300 mg/day for more than 2 years, Japan
[4] = long-term or high-dose use; several conflicting results exist
adult NASH patients = conditions: 1 year treatment, adult NASH patients refractory to dietary intervention
[5] = compared with the control group

## CC(C)(N)C(=O)N[C@H](COCc1ccccc1)C(=O)N1CCC2(CC1)CN(S(C)(=O)=O)c1ccccc12 [ibutamoren, ibutamoren mesylate]
GH/IGF-1 axis
  amplitude of pulsatile release of endogenous GH: enhances
Pancreatic […]-cells
  glucose stimulated insulin secretion: does not suppress
Obese individuals
  GH secretion: enhance GH secretion
  lean body mass: increase lean body mass
  serum IGF-1: increase serum IGF-1

## CCc1ccc(CCOc2ccc(CC3SC(=O)NC3=O)cc2)nc1 (centres unmarked) [pioglitazone]
[1]
  risk of bladder cancer: may be linked to an increased risk of bladder cancer

## N[C@@H](CC(=O)N1CCn2c(nnc2C(F)(F)F)C1)Cc1cc(F)c(F)cc1F [sitagliptin]
subjects
  fibrosis: no improvement
Type 2 diabetic patients
  hepatic steatosis or fibrosis: neither treatment reduced hepatic steatosis or fibrosis
NAFLD patients
  reducing liver fat: no better than placebo

## ghrelin (GSSFLSPEHQRVQQRKESKKPPAKLQPR; ends and bridges not checked; UniProt Q9UBU3 24-51, looked up) [hormone produced in the gastrointestinal tract that modulates GH]
Pancreatic […]-cells
  insulin release from pancreatic […]-cells: inhibits insulin release

## vitamin E
[2]
  improvements of NASH histology: superior to placebo
[3]; [5]
  hepatic steatosis: significantly reduced
  hepatocellular ballooning: significantly reduced
  inflammation: significantly reduced
  serum hepatobiliary enzymes: significantly reduced
[3]
  fibrosis improvement: not confirmed
NASH patients
  hepatic fibrosis: can ameliorate hepatic fibrosis
[4]
  all-cause mortality, prostatic cancer, hemorrhagic stroke: may increase
Adult NASH patients
  TGF-β1: reduced
  serum transaminase activities: reduced
